These results are taken from patent US20060293317A1, “Use of non-steroidal progesterone receptor modulators” (priority 2005, published 2006).

The assay deals with T1, PR-B progesterone receptor (Homo sapiens, UniProt P06401).
T1 sequence (P06401 1-933): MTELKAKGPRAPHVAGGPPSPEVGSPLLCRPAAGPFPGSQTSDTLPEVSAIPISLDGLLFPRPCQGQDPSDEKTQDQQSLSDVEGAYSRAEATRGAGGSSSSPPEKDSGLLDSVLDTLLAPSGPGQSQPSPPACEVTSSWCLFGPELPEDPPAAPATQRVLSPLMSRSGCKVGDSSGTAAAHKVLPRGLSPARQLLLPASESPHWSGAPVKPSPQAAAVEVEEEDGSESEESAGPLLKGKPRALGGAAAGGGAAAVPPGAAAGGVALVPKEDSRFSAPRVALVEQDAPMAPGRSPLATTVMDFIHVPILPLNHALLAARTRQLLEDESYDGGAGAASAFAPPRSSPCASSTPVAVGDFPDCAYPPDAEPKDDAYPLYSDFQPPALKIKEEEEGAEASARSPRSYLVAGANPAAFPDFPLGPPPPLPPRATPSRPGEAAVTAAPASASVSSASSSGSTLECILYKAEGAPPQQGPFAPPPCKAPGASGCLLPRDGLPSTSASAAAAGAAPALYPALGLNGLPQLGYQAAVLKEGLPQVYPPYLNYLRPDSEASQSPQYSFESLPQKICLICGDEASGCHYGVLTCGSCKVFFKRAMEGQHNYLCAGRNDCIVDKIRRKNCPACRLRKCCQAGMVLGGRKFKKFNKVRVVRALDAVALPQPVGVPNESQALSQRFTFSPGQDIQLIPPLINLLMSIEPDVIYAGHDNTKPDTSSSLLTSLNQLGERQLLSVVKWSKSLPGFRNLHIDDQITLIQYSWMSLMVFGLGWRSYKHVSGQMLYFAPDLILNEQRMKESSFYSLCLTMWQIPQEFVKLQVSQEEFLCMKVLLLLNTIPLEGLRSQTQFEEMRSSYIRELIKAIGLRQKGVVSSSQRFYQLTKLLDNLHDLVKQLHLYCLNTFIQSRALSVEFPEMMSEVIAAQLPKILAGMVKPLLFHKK
The experiment in a line: Antagonism at the PR-B progesterone receptor (transactivation assay). The class given is cell-based. The protocol:
Antagonism at the PR-B Progesterone Receptor
The transactivation assay is carried out as described in WO 02/054064.

One may read the IC50 as the concentration at which inhibition is half-maximal. With `Cc1noc(=O)c2ccc(NC(=O)C(O)(Cc3ccccc3)CC(C)(C)c3ccccc3)cc12` (centres unmarked) [compound 88], the “Antagonistic activity Efficacy” value (transactivation assay as in WO 02/054064) worked out at 100%. Moreover, the IC50 (transactivation assay as in WO 02/054064, read-out: Antagonistic activity IC50) worked out at 0.3 nM.
